This note sets out measurements from patent US6743817B2, “Substituted fused pyrroleimines and pyrazoleimines” (Neurogen Corporation, priority 2000, dated 2004).

A word on the melting point: it is the temperature of the solid-liquid transition.

The structures appear in SMILES notation.

Turning to `COc1ccc(NC(=O)c2n[nH]c3c2C(=NC(C)C)CCC3)cc1F`, the melting point was 259 to 261 °C (dec.).
